Patent publication US20240408169A1 (priority 2023, published 2024)
*1 amine or outer side, *2 acyl side, *3 side chain or, on linkers, in order; H or OH if unused. Where a SMILES comes first, the peptide text is derived from it. Bridges are numbered along the chain shown (N, C = ends). [ ]: non-standard residue; d: D form. The star is where a group is joined. X126 = CC(C)C(=O)N1[C@H]2COC[C@@H]1C=C(c1ccc(F)cc1C[C@@H](C(=O)[*:2])N(C)[*:1])C2; X205 = CC(C)C(=O)N1[C@@H]2COC[C@H]1C=C(c1ccc(F)cc1C[C@@H](C(=O)[*:2])N(C)[*:1])C2; X121 = C[C@@H]1CN(c2ccc(-c3ccc(Cl)cc3C[C@@H](C(=O)[*:2])N(C)[*:1])cc2)CCO1; X212 = CN1CCC(Oc2ccc(-c3ccc(Cl)cc3C[C@@H](C(=O)[*:2])N(C)[*:1])cn2)CC1; X181 = CN([C@@H](Cc1cc(Cl)ccc1C1=CCN(C(=O)C2CC2)CC1)C(=O)[*:2])[*:1]; X140 = CN([C@@H](Cc1cc(Cl)ccc1-c1ccc(Oc2cccnc2)cc1)C(=O)[*:2])[*:1]; NMehhhLys(Me) = CN([C@@H](CCCCCCCN(C)[*:3])C(=O)[*:2])[*:1]; X118 = Cc1cc(-c2ccc(Cl)cc2C[C@@H](C(=O)[*:2])N(C)[*:1])cnn1; X163 = CN([C@@H](Cc1cc(Cl)ccc1N1CCOCC1)C(=O)[*:2])[*:1]; NMe(hhhLys) = CN([C@@H](CCCCCCCN[*:3])C(=O)[*:2])[*:1]; X156 = CN([C@@H](Cc1cc(Cl)cc2ccccc12)C(=O)[*:2])[*:1]; cBuCO(3,3-F2-1-CF3) = O=C(C1(C(F)(F)F)CC(F)(F)C1)*; X133 = Cc1ncc(Cl)cc1C[C@@H](C(=O)[*:2])N(C)[*:1]; Pro(trans-4-F) = O=C(O)[C@@H]1C[C@@H](F)CN1; Gly(cPr) = N[C@H](C(=O)O)C1CC1

What was measured:
CyclinE1/CDK2 = molecular target: T1, CyclinE1/CDK2 (Homo sapiens, UniProt P24864); assay: Fluorescence Polarization (FP) competitive binding assay, Cyclin E1/Cdk2; conditions: 10 nM Cyclin E1/Cdk2, 2 nM FAM probe; average of 2-3 independent experiments; read-out: Cyclin E FP IC50;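 further: readings taken after two-hour equilibration at room temperature in HEPES buffer with NaCl, DTT, NP-40 and BSA, IC50 fitted from eight-concentration serial dilution series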
T1 construct: purchased Eurofins, discovery 14-475

OVCAR3 cells = assay: MTT proliferation assay, OVCAR3; assay type: cell-based; conditions: 5 days compound exposure, 1:3 serial dilution starting at 10 μM;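 further: compound given as an 8- or 10-point series, one day after plating, with exposure covering roughly 3-4 cell doublings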
NCI-H1048 cells = assay: MTT proliferation assay, NCI-H1048; assay type: cell-based; conditions: 5 days compound exposure, 1:3 serial dilution starting at 10 μM;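 further: Dose-response in 96-well plates over 8 or 10 concentration points, with exposure spanning 3-4 cell doublings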
CyclinB1/CDK1 = molecular target: T2, CyclinB1/CDK1 (Homo sapiens, UniProt P14635); assay: Fluorescence Polarization (FP) competitive binding assay, Cyclin B1/Cdk1; conditions: 10 nM Cyclin B1/Cdk1, 2 nM FAM probe; average of 2-3 independent experiments; read-out: Cyclin B FP IC50;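 further: fluorescence polarization read after equilibration at room temperature, with IC50 taken from serially diluted dose-response curves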
T2 construct: purchased Eurofins, discovery 14-450

CyclinA2/CDK2 = molecular target: T3, CyclinA2/CDK2 (Homo sapiens, UniProt P20248); assay: Fluorescence Polarization (FP) competitive binding assay, Cyclin A2/Cdk2; conditions: 8 nM Cyclin A2/Cdk2, 2 nM FAM probe; average of 2-3 independent experiments; read-out: Cyclin A FP IC50;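 further: plates equilibrated two hours at room temperature before polarization reading, IC50 fitted from eight-concentration compound titration curves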
T3 construct: purchased CRELUX Protein Services

SMILES | IC50 (CyclinE1/CDK2) [nM] | GI50 (OVCAR3 cells) [nM] | GI50 (NCI-H1048 cells) [nM] | IC50 (CyclinB1/CDK1) [nM] | IC50 (CyclinA2/CDK2) [nM]
CC(C)C[C@@H]1NC(=O)[C@@H](N(C)C(=O)[C@@H](NC(=O)[C@@H]2C[C@@H](F)CN2C(=O)C2(C(F)(F)F)CC(F)(F)C2)C2CC2)CCCCCCCN(C)C(=O)[C@H](Cc2cc(Cl)ccc2N2CCOCC2)N(C)C1=O [Example 319] ({cBuCO(3,3-F2-1-CF3)}-[Pro(trans-4-F)][Gly(cPr)][NMehhhLys(Me)]L[X163]; lactam 3-C) | 1350 | 20 | 10 | 20 | 30
CC(C)C[C@@H]1NC(=O)[C@@H](N(C)C(=O)[C@@H](NC(=O)[C@@H]2C[C@@H](F)CN2C(=O)C2(C(F)(F)F)CC(F)(F)C2)C2CC2)CCCCCCCN(C)C(=O)[C@H](Cc2cc(Cl)ccc2-c2ccc(Oc3cccnc3)cc2)N(C)C1=O [Example 385] ({cBuCO(3,3-F2-1-CF3)}-[Pro(trans-4-F)][Gly(cPr)][NMehhhLys(Me)]L[X140]; lactam 3-C) | 1630 | 20 | 30 | 20 | 20
CC(C)C[C@@H]1NC(=O)[C@@H](N(C)C(=O)[C@@H](NC(=O)[C@@H]2C[C@@H](F)CN2C(=O)C2(C(F)(F)F)CCC2)C2CC2)CC=CCCCCNC(=O)[C@H](Cc2cc(F)cnc2OC2CC2)N(C)C1=O [Example 132] | 450 | 380 | 570 | 20 | 710
CC(C)C[C@@H]1NC(=O)[C@@H](N(C)C(=O)[C@@H](NC(=O)[C@@H]2C[C@@H](F)CN2C(=O)C2(C(F)(F)F)CCC2)C2CC2)CC=CCCCCN(C)C(=O)[C@H](Cc2cc(F)ccc2-c2cnn(CC(F)F)c2)N(C)C1=O [Example 83] | 100 | 10 | 20 | 20 | 40
CC(=O)N1CC=C(c2ccc(Cl)cc2C[C@H]2C(=O)NCCCC=CCC[C@H](N(C)C(=O)[C@@H](NC(=O)[C@@H]3C[C@@H](F)CN3C(=O)C3(C(F)(F)F)CC(F)(F)C3)C3CC3)C(=O)N[C@@H](CC(C)C)C(=O)N2C)CC1 [Example 267] | 1950 | 40 | 50 | 20 | 20
Cc1cc(-c2ccc(Cl)cc2C[C@H]2C(=O)N(C)CCCCCCC[C@H](N(C)C(=O)[C@@H](NC(=O)[C@@H]3C[C@@H](F)CN3C(=O)C3(C(F)(F)F)CC(F)(F)C3)C3CC3)C(=O)N[C@@H](CC(C)C)C(=O)N2C)cnn1 [Example 296] ({cBuCO(3,3-F2-1-CF3)}-[Pro(trans-4-F)][Gly(cPr)][NMehhhLys(Me)]L[X118]; lactam 3-C) | 2810 | 100 | 70 | 20 | 70
CC(C)C[C@@H]1NC(=O)[C@@H](N(C)C(=O)[C@@H](NC(=O)[C@@H]2C[C@@H](F)CN2C(=O)C2(C(F)(F)F)CC(F)(F)C2)C2CC2)CCCCCCCN(C)C(=O)[C@H](Cc2cc(Cl)ccc2-c2ccc(N3CCO[C@H](C)C3)cc2)N(C)C1=O [Example 414] ({cBuCO(3,3-F2-1-CF3)}-[Pro(trans-4-F)][Gly(cPr)][NMehhhLys(Me)]L[X121]; lactam 3-C) | 940 | 10 | 10 | 20 | 30
CC(C)C[C@@H]1NC(=O)[C@@H](N(C)C(=O)[C@@H](NC(=O)[C@@H]2C[C@@H](F)CN2C(=O)C2(C(F)(F)F)CC(F)(F)C2)C2CC2)CCCCCCCN(C)C(=O)[C@H](Cc2cc(Cl)cc3ccccc23)N(C)C1=O [Example 425] ({cBuCO(3,3-F2-1-CF3)}-[Pro(trans-4-F)][Gly(cPr)][NMehhhLys(Me)]L[X156]; lactam 3-C) | 210 | 240 | 160 | 20 | 150
CC(C)C[C@@H]1NC(=O)[C@@H](N(C)C(=O)[C@@H](NC(=O)[C@@H]2C[C@@H](F)CN2C(=O)C2(C(F)(F)F)CC(F)(F)C2)C2CC2)CCCCCCCNC(=O)[C@H](Cc2cc(Cl)ccc2C2=CCN(C(=O)C3CC3)CC2)N(C)C1=O [Example 97] ({cBuCO(3,3-F2-1-CF3)}-[Pro(trans-4-F)][Gly(cPr)][NMe(hhhLys)]L[X181]; lactam 3-C) | 1450 | 30 | 20 | 20 | 20
CC(C)C[C@@H]1NC(=O)[C@@H](N(C)C(=O)[C@@H](NC(=O)[C@@H]2C[C@@H](F)CN2C(=O)C2(C(F)(F)F)CC(F)(F)C2)C2CC2)CCCCCCCN(C)C(=O)[C@H](Cc2cc(F)ccc2C2=C[C@H]3COC[C@@H](C2)N3C(=O)C(C)C)N(C)C1=O [Example 328] ({cBuCO(3,3-F2-1-CF3)}-[Pro(trans-4-F)][Gly(cPr)][NMehhhLys(Me)]L[X126]; lactam 3-C) | 210 | 10 | 10 | 20 | 20
CC(C)C[C@@H]1NC(=O)[C@@H](N(C)C(=O)[C@@H](NC(=O)[C@@H]2C[C@@H](F)CN2C(=O)C2(C(F)(F)F)CC(F)(F)C2)C2CC2)CCCCCCCN(C)C(=O)[C@H](Cc2cc(Cl)ccc2-c2ccc(OC3CCN(C)CC3)nc2)N(C)C1=O [Example 396] ({cBuCO(3,3-F2-1-CF3)}-[Pro(trans-4-F)][Gly(cPr)][NMehhhLys(Me)]L[X212]; lactam 3-C) | 2530 | 10 | 20 | 20 | 30
Cc1ncc(Cl)cc1C[C@H]1C(=O)NCCCCCCC[C@H](N(C)C(=O)[C@@H](NC(=O)[C@@H]2C[C@@H](F)CN2C(=O)C2(C(F)(F)F)CC(F)(F)C2)C2CC2)C(=O)N[C@@H](CC(C)C)C(=O)N1C [Example 331, (2S,4R)—N—((S)-2-(((3S,6S,9S)-3-((5-chloro-2-methylpyridin-3-yl)methyl)-6-isobutyl-4-methyl-2,5,8-trioxo-1,4,7-triazacyclohexadecan-9-yl)(methyl)amino)-1-cyclopropyl-2-oxoethyl)-1-(3,3-difluoro-1-(trifluoromethyl)cyclobutane-1-carbonyl)-4-fluoropyrrolidine-2-carboxamide] ({cBuCO(3,3-F2-1-CF3)}-[Pro(trans-4-F)][Gly(cPr)][NMe(hhhLys)]L[X133]; lactam 3-C) | 1140 | 50 | 60 | 20 | 170
CC(C)C[C@@H]1NC(=O)[C@@H](N(C)C(=O)[C@@H](NC(=O)[C@@H]2C[C@@H](F)CN2C(=O)C2(C(F)(F)F)CC(F)(F)C2)C2CC2)CC=CCCCCNC(=O)[C@H](Cc2cc(Cl)ccc2C2=CCN(C(=O)C(C)(C)C)CC2)N(C)C1=O [Example 91] | 5730 | 260 | 230 | 20 | 100
CC(C)C[C@@H]1NC(=O)[C@@H](N(C)C(=O)[C@@H](NC(=O)[C@@H]2C[C@@H](F)CN2C(=O)C2(C(F)(F)F)CC(F)(F)C2)C2CC2)CCCCCCCNC(=O)[C@H](Cc2cc(F)ccc2C2=C[C@@H]3COC[C@H](C2)N3C(=O)C(C)C)N(C)C1=O [Example 325] ({cBuCO(3,3-F2-1-CF3)}-[Pro(trans-4-F)][Gly(cPr)][NMe(hhhLys)]L[X205]; lactam 3-C) | 300 | 10 | 10 | 20 | 20
